Values of other authors in patent US6461591B1, “Medical aerosol formulations” (Jago Research AG, priority 1997, dated 2002).

Settings: at 20° C.

| density | vapour pressure | SMILES |
| --- | --- | --- |
| about 1.4 mg/ml | about 4.2 bar | FC(C(F)(F)F)C(F)(F)F [HFA 227, 1,1,1,2,3,3,3-heptafluoropropane] |
| – | about 6 bar | FCC(F)(F)F [HFA 134a, 1,1,1,2-tetrafluoroethane] |
